Reference: the Deep4Chem optical property database
Blank lines part the entries; values can stand above or below the molecule they belong to.

Assay: photoluminescence quantum yield (fraction); solvent given as SMILES

Structure (SMILES): CCn1c2ccsc2c2c3nsnc3c3c4sccc4n(CC)c3c21
- photoluminescence quantum yield (in C1CCOC1): 0.68
- photoluminescence quantum yield (in CCOC(C)=O): 0.63
- photoluminescence quantum yield (in CN(C)C=O): 0.42
- photoluminescence quantum yield (in Cc1ccccc1): 0.73
- photoluminescence quantum yield (in ClCCl): 0.33

- photoluminescence quantum yield (in C1CCOC1): 0.046
Structure (SMILES): N#C/C(=C\c1ccc(C=C(c2ccccc2)c2ccccc2)cc1)c1ccc([N+](=O)[O-])cc1

- photoluminescence quantum yield (in ClCCl): 0.21
Structure (SMILES): COc1ccc(-c2cc(-c3ccccc3)nn2C)cc1

- photoluminescence quantum yield (in CCO): 0.43
Structure (SMILES): CC1CC=C(c2ccc(-c3ccc(C=O)s3)s2)CC1 (stereo unspecified)

- photoluminescence quantum yield (in CS(C)=O): 0.03
Structure (SMILES): Brc1ccc2cc3c4ccccc4nc(-c4ccco4)c3n2c1

- photoluminescence quantum yield (in ClC(Cl)Cl): 0.73
Structure (SMILES): CC(C)(C)c1ccc(Oc2cc3c4c(cc(Oc5ccc(C(C)(C)C)cc5)c5c6c(Oc7ccc(C(C)(C)C)cc7)cc7c8c(cc(Oc9ccc(C(C)(C)C)cc9)c(c2c45)c86)C(=O)N(Cc2ccccc2)C7=O)C(=O)N(Cc2ccccc2)C3=O)cc1

- photoluminescence quantum yield (in C1CCCCC1): 0.012
- photoluminescence quantum yield (in CC#N): 0.005
- photoluminescence quantum yield (in CCO): 0.006
- photoluminescence quantum yield (in CCOC(C)=O): 0.007
- photoluminescence quantum yield (in CO): 0.005
- photoluminescence quantum yield (in OCC(F)(F)F): 0.006
Structure (SMILES): Cc1ccc(C2=C3C=C(I)C=[N+]3[B-](F)(F)n3cc(I)cc32)cc1

- photoluminescence quantum yield (in CC#N): 0.51
- photoluminescence quantum yield (in CO): 0.02
- photoluminescence quantum yield (in ClCCl): 0.75
Structure (SMILES): COc1cccc(-c2[nH]c(=O)n3c2-c2ccccc2C3=O)c1O

Structure (SMILES): C#CCNC1=C2C(C)=CC(C)=[N+]2[B-](F)(F)n2c(C)cc(C)c21
- photoluminescence quantum yield (in C1CCCCC1): 0.23
- photoluminescence quantum yield (in CC(C)=O): 0.063
- photoluminescence quantum yield (in CCOC(C)=O): 0.084
- photoluminescence quantum yield (in CO): 0.051
- photoluminescence quantum yield (in OCC(F)(F)F): 0.074

Structure (SMILES): CN(c1ccccc1)c1ccc(/C=C2\C(=O)c3ccccc3S2(=O)=O)cc1
- photoluminescence quantum yield (in C1CCOC1): 0.003
- photoluminescence quantum yield (in C1COCCO1): 0.012
- photoluminescence quantum yield (in CC#N): 0.002
- photoluminescence quantum yield (in CC(C)=O): 0.001
- photoluminescence quantum yield (in CCOC(C)=O): 0.003
- photoluminescence quantum yield (in CN(C)C=O): 0.003
- photoluminescence quantum yield (in CO): 0.012
- photoluminescence quantum yield (in CS(C)=O): 0.018
- photoluminescence quantum yield (in Cc1ccccc1): 0.103
- photoluminescence quantum yield (in ClC(Cl)Cl): 0.008
- photoluminescence quantum yield (in ClCCl): 0.004

Structure (SMILES): CC(=O)[B-]1(C(C)=O)OC(c2ccccc2)=CC(c2ccc3ccccc3c2)=[O+]1
- photoluminescence quantum yield (in CC#N): 0.52
- photoluminescence quantum yield (in ClC(Cl)(Cl)Cl): 0.58

Structure (SMILES): Cc1cc(C)c(B(c2ccc(-c3ccc(-c4nc5c6ccccc6c6ccccc6c5[nH]4)cc3)cc2)c2c(C)cc(C)cc2C)c(C)c1
- photoluminescence quantum yield (in C1CCOC1): 0.74
- photoluminescence quantum yield (in CC(C)=O): 0.56
- photoluminescence quantum yield (in CS(C)=O): 0.49
- photoluminescence quantum yield (in Cc1ccccc1): 0.68
- photoluminescence quantum yield (in ClCCl): 0.59

- photoluminescence quantum yield (in C1CCCCC1): 0.88
- photoluminescence quantum yield (in CC#N): 0.88
- photoluminescence quantum yield (in CO): 0.041
- photoluminescence quantum yield (in ClC(Cl)Cl): 0.99
Structure (SMILES): CC(=O)c1ccc(-c2nc3ccc(N(C)C)cc3s2)cc1

- photoluminescence quantum yield (in C1COCCO1): 0.001
Structure (SMILES): O=C1NC(c2ccccc2)=N/C1=C\c1ccccc1

- photoluminescence quantum yield (in ClCCl): 0.61
Structure (SMILES): C(=C\c1ncc2ccccc2n1)/c1ccc(N(c2ccccc2)c2ccccc2)cc1

Structure (SMILES): CCCN1C(=O)c2c3c(c4c(c2C1=O)CCc1cc(-c2ccc(N(C)C)cc2)c(OC)cc1-4)-c1cc(OC)c(-c2ccc(N(C)C)cc2)cc1CC3
- photoluminescence quantum yield (in C1CCCCC1): 0.752
- photoluminescence quantum yield (in C1CCOC1): 0.069
- photoluminescence quantum yield (in CCOC(C)=O): 0.065
- photoluminescence quantum yield (in Cc1ccccc1): 0.726
- photoluminescence quantum yield (in ClCCl): 0.023

Structure (SMILES): CCN(CC)c1ccc2ccc(=O)oc2c1
- photoluminescence quantum yield (in CC(C)=O): 0.55
- photoluminescence quantum yield (in CCCCCC): 0.85
- photoluminescence quantum yield (in CCCCCCC): 0.85
- photoluminescence quantum yield (in CCCCO): 0.47
- photoluminescence quantum yield (in CCCO): 0.52
- photoluminescence quantum yield (in CCO): 0.39
- photoluminescence quantum yield (in CCOCC): 0.8
- photoluminescence quantum yield (in CN(C)C=O): 0.56
- photoluminescence quantum yield (in CO): 0.27
- photoluminescence quantum yield (in Cc1ccccc1): 0.83
- photoluminescence quantum yield (in ClC(Cl)Cl): 0.62
- photoluminescence quantum yield (in ClCCl): 0.9
- photoluminescence quantum yield (in OCCO): 0.25
- photoluminescence quantum yield (in c1ccccc1): 0.83

- photoluminescence quantum yield (in C1CCCCC1): 0.04
Structure (SMILES): C1=Cc2ccc3ccccc3c2N(c2ccccc2)B1c1ccccc1

- photoluminescence quantum yield (in CC1CCCCC1): 0.04
- photoluminescence quantum yield (in c1cc(-c2cccc(-n3c4ccccc4c4ccccc43)c2)cc(-n2c3ccccc3c3ccccc32)c1): 0.1
Structure (SMILES): c1ccc2c(c1)Sc1ccc(-n3c4ccccc4c4ccccc43)cc1S2

- photoluminescence quantum yield (in ClCCl): 0.85
Structure (SMILES): O=P1(c2ccccc2)C(c2ccc(N(c3ccccc3)c3ccccc3)cc2)=Cc2cc3ccccc3cc21 (stereo unspecified)

- photoluminescence quantum yield (in ClCCl): 0.39
Structure (SMILES): COc1ccc(C2=Nc3cccc4[n+]3[B-](F)(O2)OC(c2ccc(OC)cc2)=N4)cc1

Structure (SMILES): CN(C)c1ccc(C#Cc2cc3ccc4cc(C#Cc5ccc(N(C)C)cc5)cc5ccc(c2)c3c45)cc1
- photoluminescence quantum yield (in Cc1ccccc1): 0.39

- photoluminescence quantum yield (in CO): 0.014
Structure (SMILES): N#Cc1c(-n2nnc3c2CCC2C(CC3)[C@@H]2CO)n([C@H]2C[C@H](O)[C@@H](CO)O2)c2ncnc(N)c12 (stereo partly specified)

- photoluminescence quantum yield (in CCCCCC): 0.45
- photoluminescence quantum yield (in CO): 0.55
- photoluminescence quantum yield (in ClCCl): 0.39
Structure (SMILES): CC(C)c1ccc2ccc3c(C(C)C)ccc4ccc1c2c43

- photoluminescence quantum yield (in ClC(Cl)Cl): 0.021
Structure (SMILES): CCCCCCN1C(=O)c2cccc3cc(/N=C\c4ccc5c(c4)c4ccccc4n5CC)cc(c23)C1=O

- photoluminescence quantum yield (in CCO): 0.011
Structure (SMILES): CC(C)=CCN1C(=O)c2cccc3c2c(cc2nc(C)oc23)C1=O

Structure (SMILES): CCCCCCCCc1ccc(-c2ccc(/C=C(\C#N)c3ccc(-c4cccc5cccc(-c6ccc(/C(C#N)=C/c7ccc(-c8ccc(CCCCCCCC)cc8)cc7)cc6)c45)cc3)cc2)cc1
- photoluminescence quantum yield (in Cc1ccccc1): 0.12

- photoluminescence quantum yield (in ClC(Cl)Cl): 0.313
Structure (SMILES): COc1ccc(C2=Cc3c4ccccc4cc[n+]3[B-](F)(F)O2)cc1

- photoluminescence quantum yield (in CCO): 0.636
Structure (SMILES): COc1ccccc1CC(=O)OCc1c(C)c(=O)n2c(=O)c(C)c(C)n12

- photoluminescence quantum yield (in CC#N): 0.52
- photoluminescence quantum yield (in CO): 0.15
- photoluminescence quantum yield (in ClCCl): 0.6
Structure (SMILES): Cc1cccc(-c2[nH]c(=O)n3c2-c2ccccc2C3=O)c1O

Structure (SMILES): C(#Cc1cc2ccc3cccc4ccc(c1)c2c34)c1ccccc1
- photoluminescence quantum yield (in Cc1ccccc1): 0.44

- photoluminescence quantum yield (in ClCCl): 0.9
Structure (SMILES): F[B-]1(F)n2c(nc3c4ccccc4c4ccccc4c32)-c2ccc3ccccc3[n+]21

- photoluminescence quantum yield (in ClC(Cl)Cl): 0
Structure (SMILES): CC1=c2c3c4cccc5cccc(c=3c(C)[n+]2[B-](F)(F)n2c(C)c3c(c21)-c1cccc2cccc-3c12)c54

- photoluminescence quantum yield (in ClCCl): 0.178
Structure (SMILES): CCCCCCOc1cc(N(CC)CC)ccc1/C=C/C(=C(C#N)C#N)c1ccc(N(c2ccccc2)c2ccccc2)cc1

Structure (SMILES): COc1cc(/C=C/c2cc(OC)c(-c3nc(-c4ccccc4)c(-c4ccccc4)[nH]3)cc2OC)c(OC)cc1/C=C/c1cc(OC)c(-c2nc(-c3ccccc3)c(-c3ccccc3)[nH]2)cc1OC
- photoluminescence quantum yield (in C1CCOC1): 0.54
- photoluminescence quantum yield (in CC#N): 0.24
- photoluminescence quantum yield (in CN(C)C=O): 0.42
- photoluminescence quantum yield (in Cc1ccccc1): 0.63

- photoluminescence quantum yield (in CCO): 0.047
- photoluminescence quantum yield (in ClCCl): 0.83
Structure (SMILES): CCN(CC)c1ccc2cc(C#N)/c(=N\C(=O)C(C)C)oc2c1

Structure (SMILES): CC(C)(C)c1ccc2c(c1)c1cc(C(C)(C)C)ccc1n2-c1nc2ccccc2nc1-n1c2ccc(C(C)(C)C)cc2c2cc(C(C)(C)C)ccc21
- photoluminescence quantum yield (in Cc1ccccc1): 0.32

- photoluminescence quantum yield (in ClC(Cl)Cl): 0.27
Structure (SMILES): C(=C\c1ccc(N(c2ccccc2)c2ccccc2)cc1)/c1ccc(-c2nc(-c3ccc(/C=C/c4ccc(N(c5ccccc5)c5ccccc5)cc4)cc3)nc(-c3ccc(/C=C/c4ccc(N(c5ccccc5)c5ccccc5)cc4)cc3)n2)cc1

- photoluminescence quantum yield (in C1CCCCC1): 0.05
- photoluminescence quantum yield (in CO): 0.74
- photoluminescence quantum yield (in CS(C)=O): 0.84
- photoluminescence quantum yield (in ClC(Cl)Cl): 0.78
- photoluminescence quantum yield (in c1ccccc1): 0.22
Structure (SMILES): CCC1=C(C)C(=O)n2c1cc1c(c(C)c(C(=O)OCC(C)C)n1CC(C)C)c2=O

- photoluminescence quantum yield (in ClCCl): 0.65
Structure (SMILES): CCCCCCCCOc1ccc(C2=C3C(C)=C(C#Cc4ccc(B(c5c(C)cc(C)cc5C)c5c(C)cc(C)cc5C)cc4)C(C)=[N+]3[B-](F)(F)n3c(C)c(C#Cc4ccc(B(c5c(C)cc(C)cc5C)c5c(C)cc(C)cc5C)cc4)c(C)c32)cc1

- photoluminescence quantum yield (in ClCCl): 0.87
Structure (SMILES): c1ccc(Cc2c3ccc(=[N+]4CCCCC4)cc-3oc3cc(N4CCCCC4)ccc23)cc1

- photoluminescence quantum yield (in ClC(Cl)Cl): 0.69
Structure (SMILES): Cc1ccc(CN(Cc2ccc(C)cc2)c2nc(C#N)c(N(Cc3ccc(C)cc3)Cc3ccc(C)cc3)nc2C#N)cc1

- photoluminescence quantum yield (in ClC(Cl)Cl): 0.11
Structure (SMILES): O=Cc1ccc(C#CC(C#Cc2ccc(C=O)o2)=Cc2ccc(C=C(C#Cc3ccc(C=O)o3)C#Cc3ccc(C=O)o3)cc2)o1

Structure (SMILES): CCCCCCCC[n+]1ccc(-c2cc[n+](CCCCCCCC)cc2)cc1
- photoluminescence quantum yield (in CC#N): 0.009

- photoluminescence quantum yield (in CO): 0.84
Structure (SMILES): C#CCOc1ccc(/C=C/C2=[N+]3C(=C(c4ccc(N(C)CC)cc4)c4c(C)cc(C)n4[B-]3(F)F)C(C)=C2)cc1

- photoluminescence quantum yield (in ClCCl): 0.416
Structure (SMILES): COc1ccc(C2=C(C)C3=C(c4c(-c5ccccn5)nc5ccccn45)c4c(C)c(-c5ccc(OC)cc5)c(C)n4[B-](F)(F)[N+]3=C2C)cc1

- photoluminescence quantum yield (in CC#N): 0.36
- photoluminescence quantum yield (in CCO): 0.71
- photoluminescence quantum yield (in CN(C)C=O): 0.35
- photoluminescence quantum yield (in O): 0.3
Structure (SMILES): CCCCOC(=O)c1ccccc1-c1c2ccc(=[N+](CC)CC)cc-2oc2cc(N(CC)CC)ccc12

- photoluminescence quantum yield (in ClC(Cl)Cl): 0.51
Structure (SMILES): c1ccc(-c2nc3c(-c4ccc(N(c5ccccc5)c5ccccc5)cc4)ccc(-c4ccc(N(c5ccccc5)c5ccccc5)cc4)c3nc2-c2ccccc2)cc1

- photoluminescence quantum yield (in C1CCCCC1): 0.42
Structure (SMILES): C=CB1C=Cc2ccc3ccccc3c2N1

Structure (SMILES): CCCCC(CC)CN1C(=O)c2cc(Oc3ccc(OC)cc3)c3c4c(Cl)cc5c6c(cc(Cl)c(c7c(Oc8ccc(OC)cc8)cc(c2c37)C1=O)c64)C(=O)N(c1c(C(C)C)cccc1C(C)C)C5=O (stereo unspecified)
- photoluminescence quantum yield (in Cc1ccccc1): 0.13

- photoluminescence quantum yield (in CC#N): 0.005
- photoluminescence quantum yield (in CO): 0.015
- photoluminescence quantum yield (in ClCCl): 0.37
Structure (SMILES): CCCCCCN(CCCCCC)c1ccc(C#Cc2ccc(C#N)cc2)cc1

- photoluminescence quantum yield (in ClC(Cl)Cl): 0.21
Structure (SMILES): CCCCN1c2ccccc2Sc2cc(/C=C\c3cc(=O)oc4cc(C)ccc34)ccc21

- photoluminescence quantum yield (in CS(C)=O): 0.06
Structure (SMILES): Cn1c(=O)c(/N=N/c2cc(S(=O)(=O)O)ccc2C(=O)O)c(O)c2ccccc21
